Measurements published in patent US20060111305A1, “Metabolites of certain [1,4]diazepino[6,7,1-ij]quinoline derivatives and methods of preparation and use thereof” (Wyeth, priority 2004, published 2006).
“And” between values parts separate entries of the source, which are not always exact repeats. Equal entries are not always repeated. Where two headings read alike, the source gives them in different places.

Experiment: Concentrations of DCDQ and DCDQ carbamoyl glucuronide (M6) in human plasma, LC/SRM (Table 34)
Assay type: in vivo, healthy human subjects
Settings: for concentration at 6 h / concentration at 12 h / concentration at 24 h: human, oral, read-out: M6 concentration in plasma; for concentration at 6 h / concentration at 12 h / concentration at 24 h / M6 to DCDQ Ratios / M6 concentration in plasma: plasma
Description: Drug administration and specimen collection were performed in a randomized, double-blinded, placebo-controlled, ascending single dose study of the safety, tolerability, pharmacokinetics, and pharmacodynamics of DCDQ administered orally to healthy subjects and subjects with schizophrenia and schizoaffective disorder. The specimens were stored at approximately −70° C. until analysis for metabolite profiles and for ratios of carbamoyl glucuronide (M6) to DCDQ.
Plasma samples from fasted subjects 25, 28 and 30 in the 50 mg single dose group, fasted subjects 50, 51, 54 in the 200 mg single dose group, fasted subjects 74, 76, 79 in the 300 mg single dose group, fed subjects 83, 84, 86 in the 300 mg single dose group and fasted subjects 92, 94, 96 in the 500 mg single dose group were analyzed for DCDQ carbamoyl glucuronide (M6) concentrations. The internal standard d8-DCDQ (25 μL of 200 ng/mL methanol solution) was added to 100 μL of the plasma samples, followed by the addition of 300 μL of acetonitrile. The samples were mixed and centrifuged at 14000 rpm in an Eppendorf 5415C centrifuge (Brinkman Instruments Inc., Westbury, N.Y.) for 10 minutes. The supernatant of each sample was transferred to a clean tube and evaporated to dryness under a stream of nitrogen in a TurboVap LV evaporator (Caliper Life Sciences, Hopkinton, Mass.). The residue was reconstituted with 50 μL of methanol followed by the addition of 150 μL of water. The sample was mixed and centrifuged as described above. The supernatant was analyzed by LC/MS/MS analysis. Samples for standard curves were prepared with control plasma spiked with synthetic M6. The concentrations of M6 used for the standard curve ranged from 0 to 2500 ng/mL plasma.
LC/MS System 3 was used for semi-quantitative analysis of metabolite M6 (DCDQ carbamoyl glucuronide) in plasma and urine samples. The HPLC equipment for this LC/MS System consisted of a Thermo Surveyor HPLC (Thermo Electron Corp., San Jose, Calif.), including a Surveyor MS pump and autosampler. Separations were accomplished on a 5 micron Phenomenex Luna C18(2) column, 150×2 mm (Phenomenex, Torrance, Calif.). The autosampler and column temperatures were set at 5° C. and 40° C., respectively. The HPLC mobile phase consisted of 10 mM ammonium acetate (A) and methanol (B), and was delivered at 0.2 mL/min. The linear mobile phase gradient (HPLC Gradient 2) is shown below. During LC/MS sample analysis, up to 3 min of the initial flow was diverted away from the mass spectrometer prior to evaluation of metabolites.
The mass spectrometer used for semi-quantitative anslysis with LC/MS System 3 was a Finnigan TSQ Quantum triple quadrupole mass spectrometer (Thermo Electron Corp.). The mass spectrometer was equipped with an electrospray interface and operated in the positive ionization mode. Settings for this mass spectrometer are listed below.
LC/MS/MS analysis in the selected reaction monitoring (SRM) mode (LC/SRM) was conducted for DCDQ and M6 using the following settings.
The computer program Microsoft Excel® 97 was used to calculate means and standard deviations and to perform the student t-test. Xcalibur (version 1.3) and MassLynx software (version 4.0) were used for collection and analysis of LC/MS data. Peak area ratios of M6 to the internal standard were used for quantitation of M6 in plasma samples.

[1] = 50 mg (fasted), 6 hr, individual subjects
[2] = 50 mg (fasted), 12 hr, individual subjects
[3] = 50 mg (fasted), 24 hr, individual subjects
[4] = 200 mg (fasted), 6 hr, individual subjects
[5] = 200 mg (fasted), 12 hr, individual subjects
[6] = 200 mg (fasted), 24 hr, individual subjects
[7] = 300 mg (fasted), 6 hr, individual subjects
[8] = 300 mg (fasted), 12 hr, individual subjects
[9] = 300 mg (fasted), 24 hr, individual subjects
[10] = 300 mg (fed), 6 hr, individual subjects
[11] = 300 mg (fed), 12 hr, individual subjects

differences in M6 concentrations and M6 to DCDQ ratios between fasted and fed subjects (300 mg of DCDQ): no statistically significant differences | concentration at 6 h (50 mg, 50 mg (fasted), 6 hr, Mean ± S.D.): 114 ± 26.9 ng/mL | concentration at 6 h (50 mg, 50 mg (fasted), 6 hr, individual subjects): 127 ng/mL | concentration at 12 h (50 mg, 50 mg (fasted), 12 hr, Mean ± S.D.): 12.4 ± 5 ng/mL | concentration at 24 h (50 mg, 50 mg (fasted), 24 hr, Mean (standard deviation not calculated)): 3.35 ng/mL | concentration at 24 h (50 mg, 50 mg (fasted), 24 hr, individual subjects): 3.1 ng/mL | concentration at 6 h (200 mg, 200 mg (fasted), 6 hr, Mean ± S.D.): 352 ± 228 ng/mL | concentration at 12 h (200 mg, 200 mg (fasted), 12 hr, Mean ± S.D.): 43.6 ± 17.1 ng/mL | concentration at 24 h (200 mg, 200 mg (fasted), 24 hr, Mean ± S.D.): 7.67 ± 2.5 ng/mL | concentration at 24 h (200 mg, 200 mg (fasted), 24 hr, individual subjects): 4.8 ng/mL | concentration at 6 h (300 mg, 300 mg (fasted), 6 hr, Mean ± S.D.): 237 ± 108 ng/mL | concentration at 12 h (300 mg, 300 mg (fasted), 12 hr, Mean ± S.D.): 88.7 ± 51.8 ng/mL | concentration at 24 h (300 mg, 300 mg (fasted), 24 hr, Mean ± S.D.): 28.9 ± 18.4 ng/mL | concentration at 6 h (300 mg, 300 mg (fed), 6 hr, Mean ± S.D.): 579 ± 354 ng/mL | concentration at 12 h (300 mg, 300 mg (fed), 12 hr, Mean ± S.D.): 286 ± 251 ng/mL | concentration at 24 h (300 mg, 300 mg (fed), 24 hr, Mean ± S.D.): 59 ± 75.9 ng/mL | concentration at 6 h (500 mg, 500 mg (fasted), 6 hr, Mean ± S.D.): 1020 ± 444 ng/mL | concentration at 12 h (500 mg, 500 mg (fasted), 12 hr, Mean ± S.D.): 178 ± 30.1 ng/mL | concentration at 12 h (500 mg, 500 mg (fasted), 12 hr, individual subjects): 146 ng/mL | concentration at 24 h (500 mg, 500 mg (fasted), 24 hr, Mean ± S.D.): 49.6 ± 32.6 ng/mL | M6 to DCDQ Ratios (50 mg (fasted), 6 hr, Mean ± S.D.): 74.3 ± 59.6 | M6 concentration in plasma [1]: 132 ng/mL and 83.1 ng/mL | M6 to DCDQ Ratios [1]: 141 and 26.4 | M6 to DCDQ Ratios (50 mg (fasted), 12 hr, Mean ± S.D.): 14.8 ± 7.87 | M6 concentration in plasma [2]: 15.1 ng/mL and 6.60 ng/mL and 15.4 ng/mL | M6 to DCDQ Ratios [2]: 21.6 and 16.5 and 6.16 | M6 to DCDQ Ratios (50 mg (fasted), 24 hr, Mean (standard deviation not calculated)): 10.8 | M6 concentration in plasma [3]: 3.6 ng/mL | M6 to DCDQ Ratios [3]: 15.5 and 6.00 | M6 to DCDQ Ratios (200 mg (fasted), 6 hr, Mean ± S.D.): 45.2 ± 34.0 | M6 concentration in plasma [4]: 225 ng/mL and 615 ng/mL and 216 ng/mL | M6 to DCDQ Ratios [4]: 83.3 and 34.2 and 18.0 | M6 to DCDQ Ratios (200 mg (fasted), 12 hr, Mean ± S.D.): 14.3 ± 14.8 | M6 concentration in plasma [5]: 37.5 ng/mL and 62.9 ng/mL and 30.3 ng/mL | M6 to DCDQ Ratios [5]: 31.3 and 6.84 and 4.73 | M6 to DCDQ Ratios (200 mg (fasted), 24 hr, Mean ± S.D.): 8.42 ± 6.68 | M6 concentration in plasma [6]: 8.8 ng/mL and 9.4 ng/mL | M6 to DCDQ Ratios [6]: 16.0 and 3.38 and 5.88 | M6 to DCDQ Ratios (300 mg (fasted), 6 hr, Mean ± S.D.): 46.1 ± 21.6 | M6 concentration in plasma [7]: 123 ng/mL and 249 ng/mL and 339 ng/mL | M6 to DCDQ Ratios [7]: 58.9 and 58.3 and 21.2 | M6 to DCDQ Ratios (300 mg (fasted), 12 hr, Mean ± S.D.): 23.5 ± 5.10 | M6 concentration in plasma [8]: 43.0 ng/mL and 78.0 ng/mL and 145 ng/mL | M6 to DCDQ Ratios [8]: 28.7 and 23.4 and 18.5 | M6 to DCDQ Ratios (300 mg (fasted), 24 hr, Mean ± S.D.): 24.1 ± 22.7 | M6 concentration in plasma [9]: 48.5 ng/mL and 12.0 ng/mL and 26.3 ng/mL | M6 to DCDQ Ratios [9]: 49.9 and 6.98 and 15.5 | M6 to DCDQ Ratios (300 mg (fed), 6 hr, Mean ± S.D.): 76.6 ± 54.9 | M6 concentration in plasma [10]: 860 ng/mL and 696 ng/mL and 182 ng/mL | M6 to DCDQ Ratios [10]: 45.3 and 44.6 and 140 | M6 concentration in plasma [11]: 279 ng/mL and 38.1 ng/mL and 540 ng/mL | M6 to DCDQ Ratios [11]: 25.6 and 4.73 | M6 concentration in plasma (300 mg (fed), 24 hr, individual subjects): 24.6 ng/mL and 6.40 ng/mL and 146 ng/mL | M6 concentration in plasma (500 mg (fasted), 6 hr, individual subjects): 1324 ng/mL and 508 ng/mL and 1221 ng/mL | M6 concentration in plasma (500 mg (fasted), 12 hr, individual subjects): 181 ng/mL and 206 ng/mL | M6 concentration in plasma (500 mg (fasted), 24 hr, individual subjects): 58.3 ng/mL and 13.5 ng/mL and 77.0 ng/mL
Compound: O=C(O)[C@H]1O[C@@H](OC(=O)N2CCN3C[C@@H]4CCC[C@@H]4c4cccc(c43)C2)[C@H](O)[C@@H](O)[C@@H]1O [Metabolite M6, carbamoyl glucuronide of DCDQ]
